Here are results for 24 molecules from patent US20240124442A1, “TRICYCLIC-AMIDO-BICYCLIC PRMT5 INHIBITORS” (AMGEN INC., priority 2021, published 2024).

By IC50 is commonly meant the point on the concentration scale where inhibition reaches its midpoint.

In assay [1] the test system is HCT116 MTAP null cells. Nature of the assay: HCT116 MTAP null cell line proliferation / cell viability (CellTiter-Glo, 6 days). The assay is classed as cell-based. Conditions: 144 h; HCT116 MTAP null cells, 6 days treatment, CellTiter-Glo cell viability; read-out: HCT-116 MTAP null IC50. In a few lines: (§1)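 CellTiter-Glo luminescence read after 6 days of compound exposure in parental and MTAP-null HCT116 cells grown in RPMI 1640/10% FBS. Dilution series: 1:3 steps, 8–9 points, top 1 or 10 μM; or 1:2 steps, 22 points, top 10 or 50 μM. IC50 = curve transit through 50% of control.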

In assay [2] the test system is HCT116 WT cells. Nature of the assay: HCT116 WT (parent) cell line proliferation / cell viability (CellTiter-Glo, 6 days). The assay is classed as cell-based. Conditions: Homo sapiens, HCT-116, 144 h, 6 days treatment. The gist of the method: as §1
A general note: Cellular ATP, detected with luciferase, serves as a proxy for viable cell number.

Regarding `Cc1nn(C)c2c1c(N)nc1cc(F)c(C(=O)N(C)[C@@H]3COCc4nc(C(F)(F)F)ccc43)cc12` [Example 314, 4-amino-7-fluoro-N,1,3-trimeth-yl-N-((5S)-2-(trifluoromethyl)-5,8-dihydro-6H-pyrano[3,4-b]-pyridin-5-yl)-1H-pyrazolo[4,3-c]quinoline-8-carboxamide], the IC50 in assay [1] came out at 41 nM; in assay [2] it was 2630 nM.
Taken in the same sequence, the figures for `CN(C(=O)c1ccc2nc(N)c(I)cc2c1)[C@@H]1COCc2nc(C(F)(F)F)ccc21` [Example 315, 2-amino-3-iodo-N-methyl-N-((5S)-2-(trifluoromethyl)-5,8-dihydro-6H-pyrano[3,4-b]pyridin-5-yl)-6-quinoline-carboxamide] were 508 nM and 13400 nM.
Taken in the same sequence, the figures for `Cc1cc2nc(N)c3cnn(C)c3c2cc1C(=O)N(C)C1CCOCc2nc(C(F)(F)F)ccc21` [Example 316, 4-amino-N,1,7-trimethyl-N-(5R)-2-(trifluoromethyl)-5,6,7,9-tetrahydrooxepino[3,4-b]pyridin-5-yl)-1H-pyrazolo-[4,3-c]quinoline-8-carboxamide and 4-amino-N,1,7-trimethyl-N-((5S)-2-(trifluoromethyl)-5,6,7,9-tetrahydrooxepino[3,4-b]pyridin-5-yl)-1H-pyrazolo-[4,3-c]quinoline-8-carboxamide] were 26 nM and 1720 nM.
Taken in the same sequence, the figures for `Nc1nc2cc(Cl)c(C(=O)N(C3CC3)[C@@H]3COc4cc(C(F)(F)F)ccc43)cc2c2c1COC2` [Example 442, (S)-4-amino-7-chloro-N-cyclopropyl-N-(6-(trifluoromethyl)-2,3-dihydrobenzofuran-3-yl)-1,3-dihydrofuro[3,4-c]quinoline-8-carboxamide] were 9 nM and 200 nM.
Consider `Nc1nc2cc(Cl)c(C(=O)N(C3CC3)[C@H]3COc4cc(C(F)(F)F)ccc43)cc2c2c1COC2` [Example 443, 4-amino-7-chloro-N-cyclopropyl-N-((3R)-6-(trifluoromethyl)-2,3-dihydro-1-benzofuran-3-yl)-1,3-dihydrofuro[3,4-c]quinoline-8-carboxamide], for which the figures for the IC50 in assay [1] and in assay [2] were 433 nM and 3460 nM, respectively.
With `CN(C(=O)c1ccc2nc(N)c3c(c2c1)COC3)[C@@H]1COc2cc(S(C)(=N)=O)ccc21` (stereo partly drawn) [Example 446, 4-amino-N-methyl-N-((3S)-6-(S-methylsulfonimidoyl)-2,3-dihydro-1-benzofuran-3-yl)-1,3-dihydrofuro[3,4-c]quinoline-8-carboxamide], the IC50 in assay [1] was found to be 864 nM; in assay [2], 36000 nM.
Taken in the same sequence, the figures for `Nc1nc2ccc(C(=O)N(C3CC3)[C@@H]3COc4cc(C(F)(F)F)ccc43)cc2c2c1COC2` [Example 448, 4-amino-N-cyclopropyl-N-((3S)-6-(trifluoromethyl)-2,3-dihydro-1-benzofuran-3-yl)-1,3-dihydrofuro[3,4-c]quinoline-8-carboxamide] were 58 nM and 3710 nM.
Taken in the same sequence, the figures for `CCN(C(=O)c1ccc2nc(N)c3c(c2c1)COC3)c1coc2cc(C(F)(F)F)ccc12` [Example 451, 4-amino-N-ethyl-N-(6-(trifluoromethyl)-1-benzofuran-3-yl)-1,3-dihydrofuro[3,4-c]quinoline-8-carboxamide] were 5180 nM and 9520 nM.
Taken in the same sequence, the figures for `CN(C(=O)c1cc2c3c(c(N)nc2cn1)COC3)[C@@H]1COc2cc(F)c(F)cc21` [Example 452, 4-amino-N-((3S)-5,6-difluoro-2,3-dihydro-1-benzofuran-3-yl)-N-methyl-1,3-dihydrofuro[3,4-c][1,7]naphthyridine-8-carboxamide] were 173 nM and 13400 nM.
In the case of `CN(C(=O)c1cc2c3c(c(N)nc2cn1)COC3)[C@@H]1COc2cc(-c3cnn(C(F)(F)F)c3)ccc21` [Example 457, 4-amino-N-methyl-N-((3S)-6-(1-(trifluoromethyl)-1H-pyrazol-4-yl)-2,3-dihydro-1-benzofuran-3-yl)-1,3-dihydrofuro[3,4-c][1,7]naphthyridine-8-carboxamide], the values for the IC50 in assay [1] and in assay [2] were 63 nM and 3770 nM, respectively.
Regarding `CN(C(=O)c1cc2c3c(c(N)nc2cc1F)COC3)[C@@H]1COc2cc(S(C)(=N)=O)ccc21` (stereo partly drawn) [Example 462, 4-amino-7-fluoro-N-methyl-N-((3S)-6-(S-methylsulfonimidoyl)-2,3-dihydro-1-benzofuran-3-yl)-1,3-dihydrofuro[3,4-c]quinoline-8-carboxamide], the concentration for half-maximal inhibition (IC50) in assay [1] came out at 237 nM; in assay [2] it was 11700 nM.
Taken in the same sequence, the figures for `C[C@H]1OCc2c1c(N)nc1cc(F)c(C(=O)N(C)[C@@H]3COc4cc(C(F)(F)F)ccc43)cc21` [Example 466, (3R)-4-amino-7-fluoro-N,3-dimethyl-N-((3S)-6-(trifluoromethyl)-2,3-dihydro-1-benzofuran-3-yl)-1,3-dihydrofuro[3,4-c]quinoline-8-carboxamide] were 9 nM and 245 nM.
Taken in the same sequence, the figures for `C[C@H]1OCc2c1c(N)nc1cc(F)c(C(=O)N(C3CC3)[C@@H]3COc4cc(C(F)(F)F)ccc43)cc21` [Example 467, (3R)-4-amino-N-cyclopropyl-7-fluoro-3-methyl-N-((3S)-6-(trifluoromethyl)-2,3-dihydro-1-benzofuran-3-yl)-1,3-dihydrofuro[3,4-c]quinoline-8-carboxamide] were 10 nM and 418 nM.
Take `CC(C)N(C(=O)c1cc2c3c(c(N)nc2cc1F)[C@@H](C)OC3)[C@@H]1COc2cc(C(F)(F)F)ccc21` [Example 468, (3R)-4-amino-7-fluoro-3-methyl-N-(2-propanyl)-N-((3S)-6-(trifluoromethyl)-2,3-dihydro-1-benzofuran-3-yl)-1,3-dihydrofuro[3,4-c]quinoline-8-carboxamide]: the IC50 in assay [1] amounted to 114 nM; in assay [2], 2690 nM.
Taken in the same sequence, the figures for `CC(C)N(C(=O)c1cc2c3c(c(N)nc2cc1F)[C@@H](C)OC3)[C@H]1COc2cc(C(F)(F)F)ccc21` [Example 469, (3R)-4-amino-7-fluoro-3-methyl-N-(2-propanyl)-N-((3R)-6-(trifluoromethyl)-2,3-dihydro-1-benzofuran-3-yl)-1,3-dihydrofuro[3,4-c]quinoline-8-carboxamide] were 2730 nM and 19700 nM.
In the same order, the values of `C[C@H]1OCc2c1c(N)nc1cc(F)c(C(=O)N(C3CCC3)[C@@H]3COc4cc(C(F)(F)F)ccc43)cc21` [Example 470, (3R)-4-amino-N-cyclobutyl-7-fluoro-3-methyl-N-((3S)-6-(trifluoromethyl)-2,3-dihydro-1-benzofuran-3-yl)-1,3-dihydrofuro[3,4-c]quinoline-8-carboxamide] are 27 nM and 256 nM.
Taken in the same sequence, the figures for `C[C@H]1OCc2c1c(N)nc1cc(F)c(C(=O)N(C3CCC3)[C@H]3COc4cc(C(F)(F)F)ccc43)cc21` [Example 471, (3R)-4-amino-N-cyclobutyl-7-fluoro-3-methyl-N-((3R)-6-(trifluoromethyl)-2,3-dihydro-1-benzofuran-3-yl)-1,3-dihydrofuro[3,4-c]quinoline-8-carboxamide] were 574 nM and 13900 nM.
For `CN(C(=O)c1ccc2nc(N)c3cnn(C)c3c2c1)[C@@H]1COc2cc(C(F)(F)F)ccc21` [Example 473, 4-amino-N,1-dimethyl-N-((3S)-6-(trifluoromethyl)-2,3-dihydro-1-benzofuran-3-yl)-1H-pyrazolo[4,3-c]quinoline-8-carboxamide], the IC50 in assay [1] is 15 nM; in assay [2], 349 nM.
Taken in the same sequence, the figures for `CN(C(=O)c1cc2c(cn1)nc(N)c1cnn(C)c12)[C@@H]1COc2cc(Cl)c(Cl)cc21` [Example 474, 4-amino-N-((3S)-5,6-dichloro-2,3-dihydro-1-benzofuran-3-yl)-N,1-dimethyl-1H-pyrazolo[4,3-c][1,7]naphthyridine-8-carboxamide] were 8 nM and 174 nM.
Taken in the same sequence, the figures for `CN(C(=O)c1cc2c(cc1F)nc(N)c1cnn(C)c12)[C@@H]1COc2cc(F)c(F)cc21` [Example 475, 4-amino-N-((3S)-5,6-difluoro-2,3-dihydro-1-benzofuran-3-yl)-7-fluoro-N,1-dimethyl-1H-pyrazolo[4,3-c]quinoline-8-carboxamide] were 8 nM and 199 nM.
As for `CN(C(=O)c1cc2c(cc1F)nc(N)c1cnn(C)c12)[C@@H]1COc2cc(Cl)c(Cl)cc21` [Example 476, 4-amino-N-((3S)-5,6-dichloro-2,3-dihydro-1-benzofuran-3-yl)-7-fluoro-N,1-dimethyl-1H-pyrazolo[4,3-c]quinoline-8-carboxamide], the values for the IC50 in assay [1] and in assay [2] were 6 nM and 125 nM, respectively.
With `CN(C(=O)c1cc2c(cc1F)nc(N)c1cnn(C)c12)[C@H]1COc2cc(Cl)c(Cl)cc21` [Example 477, 4-amino-N-((3R)-5,6-dichloro-2,3-dihydro-1-benzofuran-3-yl)-7-fluoro-N,1-dimethyl-1H-pyrazolo[4,3-c]quinoline-8-carboxamide], the IC50 in assay [1] came out at 92 nM; in assay [2], 2530 nM.
`CN(C(=O)c1cc2c(cc1F)nc(N)c1cnn(C)c12)[C@@H]1COc2cc(OC(F)(F)F)ccc21` [Example 478, 4-amino-7-fluoro-N,1-dimethyl-N-((3S)-6-(trifluoromethoxy)-2,3-dihydro-1-benzofuran-3-yl)-1H-pyrazolo[4,3-c]quinoline-8-carboxamide]: the half-inhibitory concentration (IC50) in assay [1] worked out at 5 nM; in assay [2], 133 nM.
In the same order, the values of `CN(C(=O)c1cc2c(cc1Cl)nc(N)c1cnn(C)c12)[C@@H]1COc2cc(C(F)(F)F)ccc21` [Example 480, 4-amino-7-chloro-N,1-dimethyl-N-((3S)-6-(trifluoromethyl)-2,3-dihydro-1-benzofuran-3-yl)-1H-pyrazolo[4,3-c]quinoline-8-carboxamide] are 4 nM and 43 nM.
